pIC50: −log10 of the molar value.

Data on one molecule can be found in US8946225B2, “Derivatives of 2H pyridazin-3-ones, their preparation and their use as SCD-1 inhibitors” (Pierre Fabre Medicament, priority 2009, dated 2015).

One data set deals with T1, SCD-1 (Homo sapiens, UniProt O00767).
T1 construct: addition of 125 μg of microsomal fraction of HepG2 cells; host or cells: HepG2 human hepatocarcinoma cells (microsomal fraction)
T1 sequence (O00767 1-359): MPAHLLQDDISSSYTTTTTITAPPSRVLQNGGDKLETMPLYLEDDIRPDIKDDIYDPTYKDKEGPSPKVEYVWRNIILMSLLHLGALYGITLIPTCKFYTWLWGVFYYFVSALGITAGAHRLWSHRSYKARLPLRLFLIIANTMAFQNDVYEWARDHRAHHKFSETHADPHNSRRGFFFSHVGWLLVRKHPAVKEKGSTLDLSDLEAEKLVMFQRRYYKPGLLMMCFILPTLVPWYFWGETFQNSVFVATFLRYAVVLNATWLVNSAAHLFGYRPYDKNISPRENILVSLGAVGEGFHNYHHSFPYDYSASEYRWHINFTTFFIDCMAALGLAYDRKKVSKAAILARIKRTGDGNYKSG
Briefly: Human enzymatic activity of SCD-1 from microsomes of HepG2 cells (conversion of [14C] stearic acid to oleic acid, HPLC). It counts as biochemical. The settings on record: microsomal fraction of HepG2 cells, 62 μM stearic acid, 20 minutes at 37° C., vs vehicle 0.1% DMSO; read-out: HSCD-1 (HEPG2) IC50.

Molecule `Cn1ncc(OCC(=O)N2CCC(Oc3cc(C(F)(F)F)ccc3Cl)CC2)cc1=O` [Example 24, 5-{2-[4-(2-Chloro-5-trifluoromethyl-phenoxy)-piperidin-1-yl]-2-oxo-ethoxy}-2-methyl-2H-pyridazin-3-one] displayed a melting point of 176 °C. Besides, at SCD-1, the pIC50 is 5.52 to 6.00.
